# According to patent publication US20170320870A1 (Medical Research Council Technology, priority 2009, published 2017):
# pIC50: −log10 of the molar value.
# Target: T1, LRRK2 wild type (recombinant human, catalytic domain amino acids 970-2527, GST-tagged) (Homo sapiens, UniProt Q5S007)
# T1 construct: The wild type used was recombinant human, catalytic domain (amino acids 970-2527) GST-tagged, expressed in insect cells; GST; purchased Invitrogen Corporation PV4873; host or cells: insect cells
# Assay: LRRK2 wild type protein kinase assay ([γ-33P] ATP, peptide substrate […]), IC50
# Assay type: biochemical
# Details: LRRK2 (variant not given); read-out: Potency score, LRRK2 IC50
# Outline: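 IC50 derived from duplicate 10-point titrations, with 33P incorporation into a 100 μM peptide counted after P81 filter capture. Roughly 5 nM unactivated kinase reacted with Mg/[γ-33P]ATP for 180 min at room temperature (~21 °C), pH 7.5 Tris buffer containing 10 mM MgCl2, EGTA and DTT; acid-quenched.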
# T1 sequence (Q5S007 970-2527): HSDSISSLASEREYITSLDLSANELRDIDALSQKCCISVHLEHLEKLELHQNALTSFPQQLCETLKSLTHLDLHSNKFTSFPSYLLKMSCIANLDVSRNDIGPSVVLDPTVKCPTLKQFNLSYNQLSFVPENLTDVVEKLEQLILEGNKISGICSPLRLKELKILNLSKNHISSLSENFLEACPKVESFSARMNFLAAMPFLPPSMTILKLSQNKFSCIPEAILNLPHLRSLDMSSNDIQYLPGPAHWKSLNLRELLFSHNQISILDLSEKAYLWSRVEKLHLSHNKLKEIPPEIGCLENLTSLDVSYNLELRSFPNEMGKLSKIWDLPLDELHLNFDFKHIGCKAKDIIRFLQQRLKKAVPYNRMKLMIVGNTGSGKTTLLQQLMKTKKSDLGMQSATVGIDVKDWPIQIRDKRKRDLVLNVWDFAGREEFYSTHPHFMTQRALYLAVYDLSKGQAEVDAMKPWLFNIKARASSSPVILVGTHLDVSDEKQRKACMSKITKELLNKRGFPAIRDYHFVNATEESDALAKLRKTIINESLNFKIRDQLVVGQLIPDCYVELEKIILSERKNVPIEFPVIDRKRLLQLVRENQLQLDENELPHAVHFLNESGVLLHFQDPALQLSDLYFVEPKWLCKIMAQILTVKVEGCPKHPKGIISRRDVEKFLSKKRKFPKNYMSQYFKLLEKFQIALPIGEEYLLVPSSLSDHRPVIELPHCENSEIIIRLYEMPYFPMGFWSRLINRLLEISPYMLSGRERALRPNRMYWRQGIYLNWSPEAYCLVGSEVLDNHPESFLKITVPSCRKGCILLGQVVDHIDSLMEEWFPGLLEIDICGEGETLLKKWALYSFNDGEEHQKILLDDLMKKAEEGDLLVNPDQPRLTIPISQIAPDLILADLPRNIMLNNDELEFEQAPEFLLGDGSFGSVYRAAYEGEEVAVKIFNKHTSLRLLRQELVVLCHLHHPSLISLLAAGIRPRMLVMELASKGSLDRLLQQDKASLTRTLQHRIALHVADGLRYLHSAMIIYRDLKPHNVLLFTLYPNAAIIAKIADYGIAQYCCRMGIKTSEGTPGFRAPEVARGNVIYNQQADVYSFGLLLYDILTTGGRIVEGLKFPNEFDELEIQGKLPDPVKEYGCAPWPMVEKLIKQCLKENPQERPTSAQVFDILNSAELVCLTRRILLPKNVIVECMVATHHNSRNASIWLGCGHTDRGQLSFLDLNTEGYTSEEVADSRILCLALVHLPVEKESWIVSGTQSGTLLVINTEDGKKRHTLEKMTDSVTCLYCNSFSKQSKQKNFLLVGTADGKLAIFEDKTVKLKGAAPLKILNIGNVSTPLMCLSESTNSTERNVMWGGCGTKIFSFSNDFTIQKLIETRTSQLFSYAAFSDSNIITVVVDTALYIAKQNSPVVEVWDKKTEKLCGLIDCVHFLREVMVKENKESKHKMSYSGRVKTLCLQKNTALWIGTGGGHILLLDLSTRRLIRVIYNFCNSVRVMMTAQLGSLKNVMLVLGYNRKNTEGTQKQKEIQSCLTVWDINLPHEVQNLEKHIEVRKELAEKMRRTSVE
row,pIC50,SMILES
1,6.00 to 7.00,"O=C(CCc1n[nH]c2ccnc(NC3CCCCC3)c12)N1CCCCC1c1ccccc1 (centres unmarked) [Example 201, 3-(4-Cyclohexylamino-1H-pyrazolo[4,3-c]pyridin-3-yl)-1-(2-phenyl-piperidin-1-yl)-propan-1-one]"
2,6.00 to 7.00,"O=C(CCc1n[nH]c2ccnc(NC3CCCCC3)c12)N1CCCC(C(F)(F)F)C1 (centres unmarked) [Example 202, 3-(4-Cyclohexylamino-1H-pyrazolo[4,3-c]pyridin-3-yl)-1-(3-trifluoromethyl-piperidin-1-yl)-propan-1-one]"
3,6.00 to 7.00,"O=C(CCc1n[nH]c2ccnc(NC3CCCCC3)c12)N1CCC(C(F)(F)F)CC1 [Example 203, 3-(4-Cyclohexylamino-1H-pyrazolo[4,3-c]pyridin-3-yl)-1-(4-trifluoromethyl-piperidin-1-yl)-propan-1-one]"
4,> 7.00,"O=C(CCc1n[nH]c2ccnc(NC3CCCCC3)c12)N1CCC(c2ccccc2)CC1 [Example 204, 3-(4-Cyclohexylamino-1H-pyrazolo[4,3-c]pyridin-3-yl)-1-(4-phenyl-piperidin-1-yl)-propan-1-one]"
5,6.00 to 7.00,"O=C(CCc1n[nH]c2ccnc(NC3CCCCC3)c12)N1CCOC(c2ccccc2)C1 (centres unmarked) [Example 205, 3-(4-Cyclohexylamino-1H-pyrazolo[4,3-c]pyridin-3-yl)-1-(2-phenyl-morpholin-4-yl)-propan-1-one]"
6,> 7.00,"O=C(CCc1n[nH]c2ccnc(NC3CCCCC3)c12)N1CCC(c2ccccc2)C1 (centres unmarked) [Example 206, 3-(4-Cyclohexylamino-1H-pyrazolo[4,3-c]pyridin-3-yl)-1-(3-phenyl-pyrrolidin-1-yl)-propan-1-one]"
7,> 7.00,"O=C(CCc1n[nH]c2ccnc(NC3CCCCC3)c12)N1CCC(c2cccnc2)C1 (centres unmarked) [Example 207, 3-(4-Cyclohexylamino-1H-pyrazolo[4,3-c]pyridin-3-yl)-1-(3-pyridin-3-yl-pyrrolidin-1-yl)-propan-1-one]"
8,> 7.00,"O=C(CCc1n[nH]c2ccnc(NC3CCCCC3)c12)N1CCCCC1c1cccnc1 (centres unmarked) [Example 208, 3-(4-Cyclohexylamino-1H-pyrazolo[4,3-c]pyridin-3-yl)-1-(3,4,5,6-tetrahydro-2H-[2,3′]bipyridinyl-1-yl)-propan-1-one]"
9,> 7.00,"O=C(CCc1n[nH]c2ccnc(NC3CCCCC3)c12)N1CCC(c2ccncc2)C1 (centres unmarked) [Example 209, 3-(4-Cyclohexylamino-1H-pyrazolo[4,3-c]pyridin-3-yl)-1-(3-pyridin-4-yl-pyrrolidin-1-yl)-propan-1-one]"
10,5.00 to 6.00,"CNC(=O)CCc1n[nH]c2ccnc(NC3CCCCC3)c12 [Example 210, 3-(4-Cyclohexylamino-1H-pyrazolo[4,3-c]pyridin-3-yl)-N-methyl-propionamide]"
11,5.00 to 6.00,"COCCNC(=O)CCc1n[nH]c2ccnc(NC3CCCCC3)c12 [Example 211, 3-(4-Cyclohexylamino-1H-pyrazolo[4,3-c]pyridin-3-yl)-N-(2-methoxy-ethyl)-propionamide]"
12,6.00 to 7.00,"CN(C)C(=O)CCc1n[nH]c2ccnc(NC3CCCCC3)c12 [Example 212, 3-(4-Cyclohexylamino-1H-pyrazolo[4,3-c]pyridin-3-yl)-N,N-dimethyl-propionamide]"
13,> 7.00,"c1ccc(CCc2n[nH]c3ccnc(NC4CCCCC4)c23)cc1 [Example 213, Cyclohexyl-(3-phenethyl-1H-pyrazolo[4,3-c]pyridin-4-yl)-amine]"
14,> 7.00,"c1ccc(CCc2n[nH]c3ccnc(NC4CCCCC4)c23)nc1 [Example 214, Cyclohexyl-[3-(2-pyridin-2-yl-ethyl)-1H-pyrazolo[4,3-c]pyridin-4-yl]-amine]"
15,5.00 to 6.00,"c1ccc([C@@H]2CCCN(CCCc3n[nH]c4ccnc(NC5CCCCC5)c34)C2)cc1 [Example 215, Cyclohexyl-{3-[3-((S)-3-phenyl-piperidin-1-yl)-Propyl]-1H-pyrazolo[4,3-c]pyridin-4-yl}-amine]"
16,6.00 to 7.00,"c1ccc(-c2nnc(CCc3n[nH]c4ccnc(NC5CCCCC5)c34)o2)cc1 [Example 216, Cyclohexyl-{3-[2-(5-phenyl-1,3,4-oxadiazol-2-yl)-ethyl]-1H-pyrazolo[4,3-c]pyridin-4-yl}-amine]"
17,5.00 to 6.00,"c1cc2[nH]nc(CCC3CCNCC3)c2c(NC2CCCCC2)n1 [Example 217, Cyclohexyl-[3-(2-piperidin-4-yl-ethyl)-1H-pyrazolo[4,3-c]pyridin-4-yl]-amine]"
18,6.00 to 7.00,"c1cc(CCc2n[nH]c3ccnc(NC4CCCCC4)c23)ccn1 [Example 218, Cyclohexyl-[3-(2-pyridin-4-yl-ethyl)-1H-pyrazolo[4,3-c]pyridin-4-yl]-amine]"
19,5.00 to 6.00,"CC(=O)N1CCC(CCc2n[nH]c3ccnc(NC4CCCCC4)c23)CC1 [Example 219, 1-{4-[2-(4-Cyclohexylamino-1H-pyrazolo[4,3-c]pyridin-3-yl)-ethyl]-piperidin-1-yl}-ethanone]"

row,pIC50,SMILES
1,6.00 to 7.00,"CS(=O)(=O)N1CCC(CCc2n[nH]c3ccnc(NC4CCCCC4)c23)CC1 [Example 220, Cyclohexyl-{3-[2-(1-methanesulfonyl-piperidin-4-yl)-ethyl]-1H-pyrazolo[4,3-c]pyridin-4-yl}-amine]"
2,> 7.00,"Nc1cccc(CCc2n[nH]c3ccnc(NC4CCCCC4)c23)c1 [Example 221, {3-[2-(3-Amino-phenyl)-ethyl]-1H-pyrazolo[4,3-c]pyridin-4-yl}-cyclohexyl-amine]"
3,> 7.00,"CC(=O)Nc1cccc(CCc2n[nH]c3ccnc(NC4CCCCC4)c23)c1 [Example 222, N-{3-[2-(4-Cyclohexylamino-1H-pyrazolo[4,3-c]pyridin-3-yl)-ethyl]-phenyl}-acetamide]"
4,> 7.00,"O=C(CC1CC1)Nc1cccc(CCc2n[nH]c3ccnc(NC4CCCCC4)c23)c1 [Example 223, N-{3-[2-(4-Cyclohexylamino-1H-pyrazolo[4,3-c]pyridin-3-yl)-ethyl]-phenyl}-2-cyclopropyl-acetamide]"
5,6.00 to 7.00,"CN1CCC(C(=O)Nc2cccc(CCc3n[nH]c4ccnc(NC5CCCCC5)c34)c2)CC1 [Example 224, 1-Methyl-piperidine-4-carboxylic acid {3-[2-(4-cyclohexylamino-1H-pyrazolo[4,3-c]pyridin-3-yl)-ethyl]-phenyl}-amide]"
6,> 7.00,"O=C(Nc1cccc(CCc2n[nH]c3ccnc(NC4CCCCC4)c23)c1)C1CCCC1 [Example 225, Cyclopentanecarboxylic acid {3-[2-(4-cyclohexylamino-1H-pyrazolo[4,3-c]pyridin-3-yl)-ethyl]-phenyl}-amide]"
7,> 7.00,"O=C(Nc1cccc(CCc2n[nH]c3ccnc(NC4CCCCC4)c23)c1)c1cccc(Cl)c1 [Example 226, 3-Chloro-N-{3-[2-(4-cyclohexylamino-1H-pyrazolo[4,3-c]pyridin-3-yl)-ethyl]-phenyl}-benzamide]"
8,> 7.00,"O=C(Nc1cccc(CCc2n[nH]c3ccnc(NC4CCCCC4)c23)c1)c1ccc(N2CCOCC2)cc1 [Example 227, N-{3-[2-(4-Cyclohexylamino-1H-pyrazolo[4,3-c]pyridin-3-yl)-ethyl]-phenyl}-4-morpholin-4-yl-benzamide]"
9,> 7.00,"O=C(Nc1cccc(CCc2n[nH]c3ccnc(NC4CCCCC4)c23)c1)c1cocn1 [Example 228, Oxazole-4-carboxylic acid {3-[2-(4-cyclohexylamino-1H-pyrazolo[4,3-c]pyridin-3-yl)-ethyl]-phenyl}-amide]"
10,> 7.00,"CC1CCN(C(=O)c2ccc(CCc3n[nH]c4ccnc(NC5CCCCC5)c34)cc2)CC1 [Example 229, {4-[2-(4-Cyclohexylamino-1H-pyrazolo[4,3-c]pyridin-3-yl)-ethyl]-phenyl}-(4-methyl-piperidin-1-yl)-methanone]"
11,5.00 to 6.00,"O=C1CCCN1c1n[nH]c2ccnc(NC3CCCCC3)c12 [Example 230, 1-(4-Cyclohexylamino-1H-pyrazolo[4,3-c]pyridin-3-yl)-pyrrolidin-2-one]"
12,5.00 to 6.00,"OCCCc1n[nH]c2ccnc(NC3CCCCC3)c12 [Example 231, 3-(4-Cyclohexylamino-1H-pyrazolo[4,3-c]pyridin-3-yl)-propan-1-ol]"
13,6.00 to 7.00,"COC(=O)c1ccc(CCc2n[nH]c3ccnc(NC4CCCCC4)c23)cc1 [Example 232, 4-[2-(4-Cyclohexylamino-1H-pyrazolo[4,3-c]pyridin-3-yl)-ethyl]-benzoic acid methyl ester]"
14,6.00 to 7.00,"c1cc2[nH]nc(-c3cnn(CCN4CCOCC4)c3)c2c(NC2CCCCC2)n1 [Example 233, Cyclohexyl-{3-[1-(2-morpholin-4-yl-ethyl)-1H-pyrazol-4-yl]-1H-pyrazolo[4,3-c]pyridin-4-yl}-amine]"
15,6.00 to 7.00,"c1ccc(Cn2cc(-c3n[nH]c4ccnc(NC5CCCCC5)c34)cn2)nc1 [Example 234, Cyclohexyl-[3-(1-pyridin-2-ylmethyl-1H-pyrazol-4-yl)-1H-pyrazolo[4,3-c]pyridin-4-yl]-amine]"
16,> 7.00,"CC(C)n1cc(-c2n[nH]c3ccnc(NC4CCCCC4)c23)cn1 [Example 235, Cyclohexyl-[3-(1-isopropyl-1H-pyrazol-4-yl)-1H-pyrazolo[4,3-c]pyridin-4-yl]-amine]"
17,> 7.00,"c1cc2[nH]nc(-c3ccoc3)c2c(OC2CCCCC2)n1 [Example 236, 4-Cyclohexyloxy-3-furan-3-yl-1H-pyrazolo[4,3-c]pyridine]"
18,6.00 to 7.00,"c1cc2[nH]nc(N3CCCC3)c2c(OC2CCCCC2)n1 [Example 237, 4-Cyclohexyloxy-3-pyrrolidin-1-yl-1H-pyrazolo[4,3-c]pyridine]"
19,6.00 to 7.00,"O=C(CCc1n[nH]c2ccnc(NC3CCCCC3)c12)N1CCCC(Oc2ccccc2)C1 (centres unmarked) [Example 238, 3-(4-Cyclohexylamino-1H-pyrazolo[4,3-c]pyridin-3-yl)-1-(3-phenoxy-piperidin-1-yl)-propan-1-one]"
